Common to all, as to format: binding
Test [1] deals with T1, OPRK1 (Homo sapiens, UniProt P41145).
T1 construct: purchased Promega (in-house HiBiT-GPCR construct library, NanoBRET)
Briefly: NanoBRET screen HiBiT-OPRK1 in HEK293. Here is the method:
(§1) Each tracer candidate was screened across the entire library of HiBiT-GPCR constructs using NanoBRET as the detection modality. As depicted in Figure 4A, the specificity of interactions was evaluated through decrease in BRET due to competitive displacement of a bound tracer by excess parental compound. Each tracer was analyzed for binding to each HiBiT-GPCR fusion in the absence and in the presence of competing parental compound. Briefly, HEK293 cells were transfected with HiBiT-GPCR constructs diluted into promoterless DNA to reduce expression and maximize translocation to the cell surface. Each tracer candidate was then screened at concentrations of 1 μM and 0.1 μM across cells expressing these fusions. Cells were treated for 1.5 h with tracer either alone or in the presence of 20 μM competing parental compound (i.e., control). BRET was measured upon addition of purified LgBiT and subsequent complementation with HiBiT genetically fused to a GPCR. The specificity of interactions was assessed through a decrease in BRET signal due to competitive displacement of the bound tracer. To further gauge the robustness of these interactions, the fold response over the control (i.e., BRETtracer/BRETcontrol) was calculated. We chose a 1.5-fold response, which translates to ≥7-fold signal over noise as the minimal threshold required to score an interaction as positive. […]. Below we highlight the screening results obtained for our exemplary fluorescent tracers based on Clozapine, Amitriptyline and AZD1283.
(§2) HiBiT-GPCR DNA constructs were diluted in 10 mM Tris pH 8 to a final concentration of 0.01 μg/μL, arrayed in 96-well plates and stored at −20 °C. For transfection, HEK293 cells were suspended in Opti-MEM (without phenol red) supplemented with 2% fetal bovine serum (Seradigm) and 100 units/mL penicillin–streptomycin (Gibco) at a final concentration of 220,000 cells/mL and dispensed into white 96-well plates at 90 μL/well. Subsequent transfections and screens were carried using an Agilent Bravo Automated Liquid Handling Platform. First, the 96-well HiBiT DNA arrays were diluted 25-fold in Opti-MEM (without serum or phenol red) to a final concentration of 0.0004 μg/μL and 20 μL of the diluted DNAs were transferred into new 96-well plates. Next, promoterless carrier DNA (1 μg/μL) was diluted 25-fold (0.04 μg/μL) and then dispensed into the diluted arrays at 20 μL/well. Following brief mixing, Viafect transfection reagent (Promega) diluted 16-fold into Opti-MEM was dispensed into the plates at 40 μL/well. After mixing by pipetting, plates were incubated for 10 min on the pipetting station deck. The DNA-transfection reagent complexes were then added to plates containing cells. To facilitate the screen, 10 μL of DNA-transfection reagent complexes were added in duplicates to the top 4 and bottom 4 rows, resulting in two identical 48-well arrays per plate. Plates with transfected cells were incubated for 18–20 h at 37 °C/5% CO2. A screen of each tracer across the entire library using two different concentrations requires duplicate plates of transfected cells. Depending on the number of tracers being screened, transfections can be scaled up using the same ratios. The next day, for each tracer, four 20× screening solutions in tracer dilution buffer (Promega) were prepared: two duplicates at final concentration of 20 μM and two duplicates at a final concentration of 2 μM. A competing unmodified compound was added to one of each duplicate at a final concentration of 400 μM. The four resulting solutions were diluted 4-fold in Opti-MEM without serum or phenol red to generate 5× solutions (5 µM and 0.5 µM tracer +/− 100 μM competing compound). To screen the library, a BioTek MultiFlo FX liquid dispenser was used to dispense 22.5 µL of tracer solution to the top 4 rows and 22.5 µL tracer + competing compound solution to the 4 bottom rows. Plates were briefly mixed on an orbital shaker and incubated for 1.5 h at room temperature. […]
(In BRET a luciferase serves as donor, and the signal depends on an acceptor being close.)

In test [2] the target is T2, SSTR1 (Homo sapiens, UniProt P30872).
T2 construct: purchased Promega (in-house HiBiT-GPCR construct library, NanoBRET)
T2 sequence (P30872 whole entry): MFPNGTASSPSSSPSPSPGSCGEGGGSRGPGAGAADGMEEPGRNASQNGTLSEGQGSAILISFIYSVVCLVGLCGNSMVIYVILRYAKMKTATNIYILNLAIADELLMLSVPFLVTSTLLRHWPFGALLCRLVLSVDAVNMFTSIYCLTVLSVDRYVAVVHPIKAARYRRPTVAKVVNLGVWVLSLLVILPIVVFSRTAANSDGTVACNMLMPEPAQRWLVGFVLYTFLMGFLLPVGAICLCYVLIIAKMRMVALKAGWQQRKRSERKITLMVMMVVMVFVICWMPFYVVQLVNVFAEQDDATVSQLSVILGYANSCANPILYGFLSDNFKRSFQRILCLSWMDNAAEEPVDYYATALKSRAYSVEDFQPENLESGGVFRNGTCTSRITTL
Kind of test: NanoBRET screen HiBiT-SSTR1 in HEK293. Here is the method:
as §1, §2

Test [3] addresses T3, NPY2R (Homo sapiens, UniProt P49146).
T3 construct: purchased Promega (in-house HiBiT-GPCR construct library, NanoBRET)
T3 sequence (P49146 1-381): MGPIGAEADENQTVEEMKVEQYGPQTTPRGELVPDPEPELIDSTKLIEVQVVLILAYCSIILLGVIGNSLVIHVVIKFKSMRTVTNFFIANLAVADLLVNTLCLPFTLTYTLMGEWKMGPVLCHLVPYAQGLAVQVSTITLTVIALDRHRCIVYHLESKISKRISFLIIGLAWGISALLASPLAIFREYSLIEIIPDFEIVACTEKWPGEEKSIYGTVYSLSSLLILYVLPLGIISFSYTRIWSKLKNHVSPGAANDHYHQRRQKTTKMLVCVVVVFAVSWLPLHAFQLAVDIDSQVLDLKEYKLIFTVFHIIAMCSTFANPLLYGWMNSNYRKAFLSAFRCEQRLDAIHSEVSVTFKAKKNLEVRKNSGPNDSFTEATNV
Briefly: NanoBRET screen HiBiT-NPY2R in HEK293. Here is the method: as §1, §2

Test [4] concerns the target T4, ADRA2B (Homo sapiens, UniProt P18089).
T4 construct: purchased Promega (in-house HiBiT-GPCR construct library, NanoBRET)
T4 sequence (P18089 1-450): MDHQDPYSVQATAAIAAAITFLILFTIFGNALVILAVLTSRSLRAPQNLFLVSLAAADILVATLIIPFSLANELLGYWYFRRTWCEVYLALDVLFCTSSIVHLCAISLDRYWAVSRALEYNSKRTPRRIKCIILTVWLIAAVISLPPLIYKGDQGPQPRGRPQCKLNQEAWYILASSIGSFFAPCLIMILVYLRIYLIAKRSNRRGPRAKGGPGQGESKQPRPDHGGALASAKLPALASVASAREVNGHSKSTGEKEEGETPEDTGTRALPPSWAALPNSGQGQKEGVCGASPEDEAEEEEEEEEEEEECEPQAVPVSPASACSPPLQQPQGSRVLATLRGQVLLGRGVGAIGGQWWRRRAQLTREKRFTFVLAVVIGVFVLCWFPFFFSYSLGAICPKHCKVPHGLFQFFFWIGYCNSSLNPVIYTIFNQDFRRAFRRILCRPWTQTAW
Kind of test: NanoBRET screen HiBiT-ADRA2B in HEK293. The note with it: ADRA2B.

The mark [5] stands for this setting: tracer at 0.1μM, listed as amitriptyline-b-2-NB590.
The mark [6] stands for this setting: tracer at 1μM, listed as amitriptyline-b-2-NB590.

Structures are written as SMILES.

T1 sequence (P41145 whole entry): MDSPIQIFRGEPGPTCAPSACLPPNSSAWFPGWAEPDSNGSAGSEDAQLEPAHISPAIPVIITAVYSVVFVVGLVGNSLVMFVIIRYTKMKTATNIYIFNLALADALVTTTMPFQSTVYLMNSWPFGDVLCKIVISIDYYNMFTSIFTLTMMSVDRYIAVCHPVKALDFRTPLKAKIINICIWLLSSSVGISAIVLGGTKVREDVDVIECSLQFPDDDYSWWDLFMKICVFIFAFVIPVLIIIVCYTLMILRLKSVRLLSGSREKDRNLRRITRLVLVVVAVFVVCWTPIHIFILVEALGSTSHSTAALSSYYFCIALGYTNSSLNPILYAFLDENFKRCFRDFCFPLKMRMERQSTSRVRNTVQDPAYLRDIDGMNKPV

As to `O=C(CCc1ccc2n1[B-](F)(F)[N+]1=C(c3ccc[nH]3)C=CC1=C2)NCc1ccc(C(=O)NCCOCCC(=O)N[C@@H]2CC[C@@]3(O)[C@H]4Cc5ccc(O)c6c5[C@@]3(CCN4CC3CC3)[C@H]2O6)cc1` [Naltrexone-3-NB590], the “NanoBRET Fold Response” value in test [1] (OPRK1, tracer 0.1μM) is 2.19; in test [1] (OPRK1, tracer 1μM), 1.53; in test [2] (SSTR1, tracer 0.1μM), 1.06; in test [2] (SSTR1, tracer 1μM), 0.96; in test [3] (NPY2R, tracer 0.1μM), 1.05; in test [3] (NPY2R, tracer 1μM), 0.96.

For `CN1CCN(C2=Nc3cc(Cl)ccc3N(CC(=O)NCCOCCOCCOCCOCCNC(=O)CCc3ccc4n3[B-](F)(F)[N+]3=C(c5ccc[nH]5)C=CC3=C4)c3ccccc32)CC1` [Clozapine-c-2-NB590], the “NanoBRET Fold Response” value was determined as 1.01 in test [1] (OPRK1, 0.1μM tracer); 0.90 in test [1] (OPRK1, 1μM tracer); 0.98 in test [2] (SSTR1, 0.1μM tracer); 1.02 in test [2] (SSTR1, 1μM tracer); 1.01 in test [3] (NPY2R, 0.1μM tracer); 0.99 in test [3] (NPY2R, 1μM tracer).

On to `O=C(CCOCCOCCOCCOCCNC(=O)CCc1ccc2n1[B-](F)(F)[N+]1=C(c3ccc[nH]3)C=CC1=C2)NCCCN1CCN(C2=Nc3cc(Cl)ccc3Nc3ccccc32)CC1` [Clozapine-a-2-NB590], for which the “NanoBRET Fold Response” value in test [1] (OPRK1, 0.1μM tracer) came to 1.01; in test [1] (OPRK1, 1μM tracer), 0.97; in test [2] (SSTR1, 0.1μM tracer) it was 0.96; in test [2] (SSTR1, 1μM tracer) it was 1.00; in test [4] (0.1μM tracer) it was 7.79; in test [4] (1μM tracer), 7.79. For the same compound, the “NanoBRET Fold Response” value is listed as 0.94 in test [3] (NPY2R, 0.1μM tracer) and 1.11 in test [3] (NPY2R, 1μM tracer).

In the case of `CN(CCC=C1c2ccccc2CCc2ccccc21)C(=O)CCOCCOCCOCCOCCNC(=O)CCc1ccc2n1[B-](F)(F)[N+]1=C(c3ccc[nH]3)C=CC1=C2` [Amitriptyline-e-2-NB590], the “NanoBRET Fold Response” value in test [1] (tracer at 1μM) was determined as 1.05.

In the case of `O=C(CCc1ccc2n1[B-](F)(F)[N+]1=C(c3ccc[nH]3)C=CC1=C2)NCc1ccc(C(=O)NCCOCCOCCNCC(O)COc2cccc3ccccc23)cc1` (stereo not drawn) [Propranolol-3-NB590], the “NanoBRET Fold Response” value in test [1] (OPRK1, 0.1μM) is 1.08; in test [1] (OPRK1, 1μM), 1.02; in test [2] (SSTR1, 0.1μM), 1.04; in test [2] (SSTR1, 1μM), 1.02; in test [3] (NPY2R, 0.1μM), 1.02; in test [3] (NPY2R, 1μM), 1.00.

For `N#CN/C(=N\CCNC(=O)c1ccc(N)cc1)NCCCOc1cccc(CN2CCCCC2)c1` [Aminopotentidine (unmodified)], the “NanoBRET Fold Response” value in test [1] (OPRK1, other tracers/Aminopotentidine (unmodified), 0.1μM) was 1.75; in test [1] (OPRK1, other tracers/Aminopotentidine (unmodified), 1μM), 1.55; in test [4] (other tracers/Aminopotentidine (unmodified), 0.1μM), 1.49; in test [4] (other tracers/Aminopotentidine (unmodified), 1μM) it was 1.60.

As to `O=C(CCc1ccc2n1[B-](F)(F)[N+]1=C(c3ccc[nH]3)C=CC1=C2)NCCOCCOCCNC(=O)OCCOCCN1CCN(C2=Nc3ccccc3Sc3ccccc32)CC1` [Quetiapine-a-2-NB590], the “NanoBRET Fold Response” value in test [1] (OPRK1, tracer 0.1μM) amounted to 0.94; in test [1] (OPRK1, tracer 1μM), 0.97; in test [2] (SSTR1, tracer 0.1μM), 0.92; in test [2] (SSTR1, tracer 1μM) it was 0.92; in test [3] (NPY2R, tracer 0.1μM), 0.99; in test [3] (NPY2R, tracer 1μM), 0.85.

With `CN1CCN(C2=Nc3cc(Cl)ccc3Nc3ccc(CNC(=O)CCOCCOCCOCCOCCNC(=O)CCc4ccc5n4[B-](F)(F)[N+]4=C(c6ccc[nH]6)C=CC4=C5)cc32)CC1` [Clozapine-b-2-NB590], the “NanoBRET Fold Response” value in test [1] (OPRK1, 0.1μM tracer) was 0.99; in test [1] (OPRK1, 1μM tracer) it was 0.96; in test [2] (SSTR1, 0.1μM tracer) it was 1.00; in test [2] (SSTR1, 1μM tracer) it was 1.09; in test [3] (NPY2R, 0.1μM tracer) it was 1.00; in test [3] (NPY2R, 1μM tracer), 1.02.

`CN(C)CCC=C1c2ccccc2CCc2ccc(C(=O)NCCNC(=O)CCOCCOCCOCCOCCNC(=O)CCc3ccc4n3[B-](F)(F)[N+]3=C(c5ccc[nH]5)C=CC3=C4)cc21` [Amitriptyline-a-2-NB590]: the “NanoBRET Fold Response” value in test [1] (tracer at 0.1μM) is given as 1.04; in test [1] (tracer at 1μM), 1.02; in test [2] (tracer at 0.1μM), 1.30; in test [2] (tracer at 1μM), 1.28; in test [3] (tracer at 0.1μM), 0.99; in test [3] (tracer at 1μM), 0.98.

`Cc1cc2c(s1)Nc1ccccc1N=C2N1CCN(CCCNC(=O)CCOCCOCCOCCOCCNC(=O)CCc2ccc3n2[B-](F)(F)[N+]2=C(c4ccc[nH]4)C=CC2=C3)CC1` [Olanzapine-a-2-NB590]: the “NanoBRET Fold Response” value in test [1] (OPRK1, tracer 0.1μM) was 0.92; in test [1] (OPRK1, tracer 1μM) it was 1.16; in test [2] (SSTR1, tracer 0.1μM), 1.08; in test [2] (SSTR1, tracer 1μM), 1.16; in test [3] (NPY2R, tracer 0.1μM), 1.00; in test [3] (NPY2R, tracer 1μM) it was 0.99.

Regarding `Cc1nc2n(c(=O)c1CCN1CCC(c3noc4cc(F)ccc34)CC1)CCCC2OC(=O)NCCOCCOCCOCCOCCNC(=O)CCc1ccc2n1[B-](F)(F)[N+]1=C(c3ccc[nH]3)C=CC1=C2` (stereo not drawn) [Risperidone-2-NB590], the “NanoBRET Fold Response” value in test [1] (OPRK1, tracer 0.1μM) is listed as 0.96; in test [1] (OPRK1, tracer 1μM), 0.99; in test [2] (SSTR1, tracer 0.1μM) it was 1.08; in test [2] (SSTR1, tracer 1μM), 0.94; in test [3] (NPY2R, tracer 0.1μM), 1.07; in test [3] (NPY2R, tracer 1μM) it was 0.98.

With `CN(C)CCC=C1c2ccccc2CCc2ccc(C(=O)NCCNC(=O)CCOCCOCCOCCOCCNC(=O)CCc3ccc4n3[B-](F)(F)[N+]3=C(c5ccc[nH]5)C=CC3=C4)cc21` [Amitriptyline-b-2-NB590], the “NanoBRET Fold Response” value in test [1] (setting [5]) is 1.23; in test [1] (setting [6]), 1.23; in test [2] (setting [6]) it was 1.07; in test [3] (setting [5]), 1.09; in test [3] (setting [6]), 0.88.

Source of the values: paper PMC8151276, “An Integrated Approach toward NanoBRET Tracers for Analysis of GPCR Ligand Engagement” (Molecules, 2021).
